Target: Replicase polyprotein 1ab (Severe acute respiratory syndrome coronavirus 2, UniProt P0DTD1)
Assay: Inhibition of recombinant SARS-CoV-2 3CLpro expressed in Escherichia coli BL21 DE3 using FAM-KTSAVLQSGFRKMEK-TAMRA fluorogenic peptide as substrate preincubated for 1 hr followed by substrate addition measured after 30 mins by FRET assay

In the case of CC(C)C[C@H](NC(=O)c1cc2ccccc2[nH]1)C(=O)NN(C[C@H]1CCNC1=O)C(=O)CCl, the IC50 is reported as 3 nM.
Molecule CC(C)C[C@H](NC(=O)OCc1ccccc1)C(=O)NN(CC1CCCNC1=O)C(=O)CCl (some centres not stated) has an IC50 of 5 nM.

Reference: ChEMBL document CHEMBL5131547, “Novel Halomethylketone Azadipeptides for Treating COVID-19” (ACS Med Chem Lett, 2022)
